Key:
Assay type in all cases: in vivo
[1] = tested on: ragweed (common ragweed, Ambrosia elatior); assay: Test C greenhouse herbicide test, pre- and postemergence
Excerpt: (§1) Seeds of plant species selected from blackgrass (Alopecurus myosuroides), ryegrass, Italian (Italian ryegrass, Lolium multiflorum), wheat (winter wheat, Triticum aestivum), galium (catchweed bedstraw, Galium aparine), corn (Zea mays), large crabgrass, large (large crabgrass, Digitaria sanguinalis), foxtail, giant (giant foxtail, Setaria faberii), johnsongrass (Sorghum halepense), lambsquarters (Chenopodium album), morningglory (Ipomoea coccinea), nutsedge, yellow (yellow nutsedge, Cyperus esculentus), pigweed (Amaranthus retroflexus), ragweed (common ragweed, Ambrosia elatior), soybean (Glycine max), barnyardgrass (Echinochloa crus-galli), oilseed rape (Brassica napus), waterhemp (common waterhemp, Amaranthus rudis), and velvetleaf (Abutilon theophrasti) were planted into a blend of loam soil and sand and treated preemergence with test chemicals formulated in a non-phytotoxic solvent mixture which included a surfactant.
(§2) At the same time, plants selected from these crop and weed species and also chickweed (common chickweed, Stellaria media), kochia (Kochia scoparia), and oat, wild (wild oat, Avena fatua), were planted in pots containing Redi-Earth® planting medium (Scotts Company, 14111 Scottslawn Road, Marysville, Ohio 43041) comprising spaghnum peat moss, vermiculite, wetting agent and starter nutrients and treated with postemergence applications of test chemicals formulated in the same manner. Plants ranged in height from 2 to 18 cm (1- to 4-leaf stage) for postemergence treatments. Treated plants and controls were maintained in a greenhouse for 13 to 15 d, after which time all species were compared to controls and visually evaluated. Plant response ratings, summarized in Table C, are based on a scale of 0 to 100 where 0 is no effect and 100 is complete control. A dash (-) response means no test result.

[2] = tested on: morningglory (Ipomoea coccinea); assay: as above
Excerpt: as §1, §2

[3] = tested on: ryegrass, Italian (Italian ryegrass, Lolium multiflorum); assay: as above
Excerpt: as §1, §2

[4] = tested on: corn (Zea mays); assay: as above
Excerpt: as §1, §2

[5] = tested on: foxtail, giant (giant foxtail, Setaria faberii); assay: as above
Excerpt: as §1, §2

[6] = tested on: blackgrass (Alopecurus myosuroides); assay: as above
Excerpt: as §1, §2

[7] = tested on: soybean (Glycine max); assay: as above
Excerpt: as §1, §2

[8] = tested on: waterhemp (common waterhemp, Amaranthus rudis); assay: as above
Excerpt: as §1, §2

[9] = tested on: johnsongrass (Sorghum halepense); assay: as above
Excerpt: as §1, §2

[10] = tested on: lambsquarters (Chenopodium album); assay: as above
Excerpt: as §1, §2

[11] = tested on: pigweed (Amaranthus retroflexus); assay: as above
Excerpt: as §1, §2

[12] = tested on: barnyardgrass (Echinochloa crus-galli); assay: as above
Excerpt: as §1, §2

[13] = tested on: wheat (winter wheat, Triticum aestivum); assay: as above
Excerpt: as §1, §2

[14] = tested on: crabgrass, large (large crabgrass, Digitaria sanguinalis); assay: as above
Excerpt: as §1, §2

[15] = tested on: kochia (Kochia scoparia); assay: Test C greenhouse herbicide test, postemergence
In short: (§3)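 Greenhouse postemergence spray on plants 2–18 cm tall; response judged visually after 13–15 d relative to untreated controls using a 0 (none) to 100 (full control) scale.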

[16] = tested on: oat, wild (wild oat, Avena fatua); assay: Test C greenhouse herbicide test, postemergence
In short: as §3

[17] = Postemergence, 31 g ai/ha, 0 to 100 scale (0 no effect, 100 complete control)
[18] = Postemergence, 125 g ai/ha, scale 0 to 100, 0 is no effect, 100 is complete control
[19] = Postemergence, 250 g ai/ha, scale 0 to 100, 0 no effect, 100 complete control, 13 to 15 d
[20] = Preemergence, 31 g ai/ha, scale 0 to 100, 0 is no effect, 100 is complete control
[21] = Preemergence, 62 g ai/ha, scale 0 to 100, 0 is no effect, 100 is complete control
[22] = Preemergence, 125 g ai/ha, scale 0 to 100, 0 is no effect, 100 is complete control
[23] = Preemergence, 250 g ai/ha, scale 0 to 100 (0 no effect, 100 complete control)
[24] = postemergence, 62 g ai/ha, scale 0 to 100, 0 no effect, 100 complete control

With `CCC(=O)Oc1c(C)nn(C)c(=O)c1-c1c(C)sc2ccc(C)cc12` [Compound 42] the “Ragweed plant response rating” value [1, 17] was 90, the “Plant response rating, Ragweed” value [1, 18] was 98 and the “Plant response rating, Ragweed” value [1, 19] was 100. The “Plant response rating, Ragweed” value [1, 20] was 90, the “Plant response rating, Ragweed” value [1, 21] was 90 and the “Plant response rating, Ragweed” value [1, 22] was 95. For the same compound, the “Ragweed plant response rating” value [1, 23] was 100, the “Ragweed plant response rating” value [1, 24] was 85 and the “Morningglory plant response rating” value [2, 17] was 75. For the same compound, the “Plant response rating, Morningglory” value [2, 18] was 100, the “Plant response rating, Morningglory” value [2, 19] was 100 and the “Plant response rating, Morningglory” value [2, 20] was 85. The “Plant response rating, Morningglory” value [2, 21] was 98, the “Plant response rating, Morningglory” value [2, 22] was 98 and the “Morningglory plant response rating” value [2, 23] was 98. For the same compound, the “Morningglory plant response rating” value [2, 24] was 100, the “Ryegrass, Italian plant response rating” value [3, 17] was 65 and the “Plant response rating, Ryegrass, Italian” value [3, 18] was 90. For the same compound, the “Plant response rating, Ryegrass, Italian” value [3, 19] was 95, the “Plant response rating, Ryegrass, Italian” value [3, 20] was 85 and the “Plant response rating, Ryegrass, Italian” value [3, 21] was 90. The “Plant response rating, Ryegrass, Italian” value [3, 22] was 90, the “Ryegrass, Italian plant response rating” value [3, 23] was 90 and the “Ryegrass, Italian plant response rating” value [3, 24] was 90. For the same compound, the “Corn plant response rating” value [4, 17] was 0, the “Plant response rating, Corn” value [4, 18] was 5 and the “Plant response rating, Corn” value [4, 19] was 5. The “Plant response rating, Corn” value [4, 20] was 0, the “Plant response rating, Corn” value [4, 21] was 0 and the “Plant response rating, Corn” value [4, 22] was 10. The “Corn plant response rating” value [4, 23] was 35, the “Corn plant response rating” value [4, 24] was 5 and the “Foxtail, Giant plant response rating” value [5, 17] was 25. For the same compound, the “Plant response rating, Foxtail, Giant” value [5, 18] was 35, the “Plant response rating, Foxtail, Giant” value [5, 19] was 80 and the “Plant response rating, Foxtail, Giant” value [5, 20] was 75. The “Plant response rating, Foxtail, Giant” value [5, 21] was 80, the “Plant response rating, Foxtail, Giant” value [5, 22] was 90 and the “Foxtail, Giant plant response rating” value [5, 23] was 100. The “Foxtail, Giant plant response rating” value [5, 24] was 30, the “Blackgrass plant response rating” value [6, 17] was 30 and the “Plant response rating, Blackgrass” value [6, 18] was 60. For the same compound, the “Plant response rating, Blackgrass” value [6, 19] was 70, the “Plant response rating, Blackgrass” value [6, 20] was 40 and the “Plant response rating, Blackgrass” value [6, 21] was 85. For the same compound, the “Plant response rating, Blackgrass” value [6, 22] was 90, the “Blackgrass plant response rating” value [6, 23] was 90 and the “Blackgrass plant response rating” value [6, 24] was 35. For the same compound, the “Soybean plant response rating” value [7, 17] was 0, the “Plant response rating, Soybean” value [7, 18] was 10 and the “Plant response rating, Soybean” value [7, 19] was 15. For the same compound, the “Plant response rating, Soybean” value [7, 20] was 35, the “Plant response rating, Soybean” value [7, 21] was 0 and the “Plant response rating, Soybean” value [7, 22] was 0. The “Soybean plant response rating” value [7, 23] was 5, the “Soybean plant response rating” value [7, 24] was 5 and the “Waterhemp plant response rating” value [8, 17] was 75. For the same compound, the “Plant response rating, Waterhemp” value [8, 18] was 98, the “Plant response rating, Waterhemp” value [8, 19] was 95 and the “Plant response rating, Waterhemp” value [8, 20] was 80. The “Plant response rating, Waterhemp” value [8, 21] was 98, the “Plant response rating, Waterhemp” value [8, 22] was 100 and the “Waterhemp plant response rating” value [8, 23] was 100. The “Waterhemp plant response rating” value [8, 24] was 85, the “Johnsongrass plant response rating” value [9, 17] was 5 and the “Plant response rating, Johnsongrass” value [9, 19] was 25. For the same compound, the “Plant response rating, Johnsongrass” value [9, 20] was 0, the “Plant response rating, Johnsongrass” value [9, 21] was 0 and the “Plant response rating, Johnsongrass” value [9, 22] was 5. The “Johnsongrass plant response rating” value [9, 23] was 30, the “Johnsongrass plant response rating” value [9, 24] was 5 and the “Lambsquarters plant response rating” value [10, 17] was 85. The “Plant response rating, Lambsquarters” value [10, 18] was 100, the “Plant response rating, Lambsquarters” value [10, 19] was 98 and the “Plant response rating, Lambsquarters” value [10, 20] was 85. For the same compound, the “Plant response rating, Lambsquarters” value [10, 21] was 80, the “Plant response rating, Lambsquarters” value [10, 22] was 85 and the “Lambsquarters plant response rating” value [10, 23] was 90. The “Lambsquarters plant response rating” value [10, 24] was 95, the “Pigweed plant response rating” value [11, 17] was 85 and the “Plant response rating, Pigweed” value [11, 18] was 98. The “Plant response rating, Pigweed” value [11, 19] was 98, the “Plant response rating, Pigweed” value [11, 20] was 100 and the “Plant response rating, Pigweed” value [11, 21] was 100. For the same compound, the “Plant response rating, Pigweed” value [11, 22] was 100, the “Pigweed plant response rating” value [11, 23] was 100 and the “Pigweed plant response rating” value [11, 24] was 95. The “Barnyardgrass plant response rating” value [12, 17] was 20, the “Plant response rating, Barnyardgrass” value [12, 18] was 30 and the “Plant response rating, Barnyardgrass” value [12, 19] was 40. For the same compound, the “Plant response rating, Barnyardgrass” value [12, 20] was 0, the “Plant response rating, Barnyardgrass” value [12, 21] was 30 and the “Plant response rating, Barnyardgrass” value [12, 22] was 60. The “Barnyardgrass plant response rating” value [12, 23] was 80, the “Barnyardgrass plant response rating” value [12, 24] was 30 and the “Wheat plant response rating” value [13, 17] was 0. The “Plant response rating, Wheat” value [13, 18] was 0, the “Plant response rating, Wheat” value [13, 19] was 0 and the “Plant response rating, Wheat” value [13, 20] was 0. The “Plant response rating, Wheat” value [13, 21] was 0, the “Plant response rating, Wheat” value [13, 22] was 0 and the “Wheat plant response rating” value [13, 23] was 5. For the same compound, the “Wheat plant response rating” value [13, 24] was 0, the “Crabgrass, Large plant response rating” value [14, 17] was 10 and the “Plant response rating, Crabgrass, Large” value [14, 18] was 20. The “Plant response rating, Crabgrass, Large” value [14, 19] was 20, the “Plant response rating, Crabgrass, Large” value [14, 20] was 55 and the “Plant response rating, Crabgrass, Large” value [14, 21] was 70. The “Plant response rating, Crabgrass, Large” value [14, 22] was 80, the “Crabgrass, Large plant response rating” value [14, 23] was 85 and the “Crabgrass, Large plant response rating” value [14, 24] was 15. The “Kochia plant response rating” value [15, 17] was 90, the “Plant response rating, Kochia” value [15, 18] was 100 and the “Plant response rating, Kochia” value [15, 19] was 100. For the same compound, the “Kochia plant response rating” value [15, 24] was 100, the “Oat, Wild plant response rating” value [16, 17] was 75 and the “Plant response rating, Oat, Wild” value [16, 18] was 90. The “Plant response rating, Oat, Wild” value [16, 19] was 95 and the “Oat, Wild plant response rating” value [16, 24] was 90.

Source: patent publication US10597388B2, “Pyridazinone herbicides” (FMC CORPORATION, priority 2014, dated 2020)
